Results from patent US9901638B2, “Composition and method for treating an autoimmune disease” (RedHill Biopharma Ltd., priority 2011, dated 2018).

System: EAE relapse (remitting-relapsing MS model)
Assay: EAE relapse study (PLP139-151/CFA), therapeutic treatment
Format: in vivo
Details: groups of 15; treatment from enrolment to Day 39; vehicle group 8 mice; FTY-720 3 mg/kg p.o. QD, RHB-104 p.o. BID
Excerpt: Disease was induced by immunizing mice on Day 0 with PLP139-151 peptide emulsified in complete Freund's adjuvant (CFA).
To assess disease development, mice were weighed three times per week (Monday, Wednesday and Friday) from the time of immunization and scored daily for clinical signs of EAE starting on Day 9.
Enrollment of mice into groups occurred on the second day of clinical signs of EAE for each mouse. Mice were enrolled into treatment groups as they develop signs of EAE (rolling enrolment).
45 mice were enrolled into 3 groups of 15 and the treatment started on the day of enrolment. Assignment was balanced to achieve similar scores between the groups at enrolment.
Group 1—Vehicle (PBS), p.o., BID, 5 mL/kg (negative control)
Group 2—treated with FTY-720 (Fingolimod, Gilenya) 3 mg/kg, p.o., QD (a drug used for treatment of MS and used as a positive control)
Group 3—treated with RHB-104, p.o., BID, 5 mL/kg
Treatment started on the day of enrolment and continued until Day 39.
All dosing was performed at the same time (+/−1 hour) each day. […]
Mice were scored daily from Day 9 to Day 40, and body weight was measured three times/week (Monday, Wednesday and Friday), starting before immunization (Day −1). […]
Readouts were EAE scores on the scale 0-5 in 0.5 unit increments, and changes in body weight.
EAE was scored on scale 0 to 5 as described above.

CCCCCCCCc1ccc(CCC(N)(CO)CO)cc1 [FTY-720, Fingolimod]
Number of mice showing relapse: 2 mice
